Results published in patent publication US6358885B1, “Substituted phenylheterocyclic herbicides” (Mississippi State University, priority 1992, dated 2002).

How the values were obtained:
chickweed [1] = assay: Test B preemergence/postemergence greenhouse plant response rating 0 to 10; type: in vivo, Stellaria media; conditions: POSTEMERGENCE
How it was run: (§1)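 Postemergence treatment of plants two to eighteen cm tall ran alongside preemergence treatment of planted seed, each using compound in a non-phytotoxic solvent.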

wild oat = assay: as above; type: in vivo, Avena fatua; conditions: POSTEMERGENCE, 0 to 10 scale
How it was run: as §1

chickweed [2] = assay: Test C preemergence/postemergence greenhouse plant response rating 0 to 100; type: in vivo, Stellaria media; conditions: POSTEMERGENCE
How it was run: (§2)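 Compounds in non-phytotoxic solvent applied preemergence to sandy loam one day after planting, postemergence at the 1–4 leaf stage, or to ~2.5 cm floodwater over silt loam.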

wild buckwheat [3] = assay: Test B preemergence/postemergence greenhouse plant response rating 0 to 10; type: in vivo, Polygonum convolvulus; conditions: 0 to 10 scale
How it was run: as §1

lambsquarters = assay: Test C preemergence/postemergence greenhouse plant response rating 0 to 100; type: in vivo, Chenopodium album; conditions: POSTEMERGENCE
How it was run: as §2

cotton = assay: as above; type: in vivo, Gossypium hirsutum; conditions: POSTEMERGENCE
How it was run: as §2

velvetleaf = assay: as above; type: in vivo, Abutilon theophrasti; conditions: POSTEMERGENCE
How it was run: as §2

sorghum = assay: Test B preemergence/postemergence greenhouse plant response rating 0 to 10; type: in vivo, Sorghum bicolor; conditions: 0 to 10 scale
How it was run: as §1

downy brome = assay: Test C preemergence/postemergence greenhouse plant response rating 0 to 100; type: in vivo, Bromus tectorum; conditions: POSTEMERGENCE
How it was run: as §2

giant foxtail = assay: Test B preemergence/postemergence greenhouse plant response rating 0 to 10; type: in vivo, Setaria faberii; conditions: 0 to 10 scale
How it was run: as §1

duck salad = assay: Test C flood test plant response rating 0 to 100; type: in vivo, Heteranthera limosa
How it was run: as §2

sugar beet = assay: Test C preemergence/postemergence greenhouse plant response rating 0 to 100; type: in vivo, Beta vulgaris; conditions: POSTEMERGENCE
How it was run: as §2

soybean = assay: as above; type: in vivo, Glycine max; conditions: POSTEMERGENCE
How it was run: as §2

ryegrass = assay: as above; type: in vivo, Lolium multiflorum; conditions: POSTEMERGENCE
How it was run: as §2

corn = assay: Test B preemergence/postemergence greenhouse plant response rating 0 to 10; type: in vivo, Zea mays; conditions: for Plant response rating, Corn: 0 to 10 scale
How it was run: as §1

wild buckwheat [4] = assay: Test C preemergence/postemergence greenhouse plant response rating 0 to 100; type: in vivo, Polygonum convolvulus; conditions: POSTEMERGENCE
How it was run: as §2

barley = assay: as above; type: in vivo, Hordeum vulgare; conditions: POSTEMERGENCE
How it was run: as §2

cheatgrass = assay: Test B preemergence/postemergence greenhouse plant response rating 0 to 10; type: in vivo, Bromus secalinus; conditions: for Plant response rating, Cheatgrass: 0 to 10 scale
How it was run: as §1

Structure (SMILES): CC(C)N1C(=O)COc2cc(F)c(-c3nn4c(c3Cl)CCCC4)cc21 [Compound 31]
- Plant response rating, Chickweed (chickweed [1]; Rate 10 g/ha, 0 to 10 scale): 10
- Plant response rating (0 to 10 scale), Chickweed (chickweed [1]; Rate 50 g/ha): 10
- Plant response rating, Wild oat (wild oat; Rate 10 g/ha): 5
- Plant response rating, Wild oat (wild oat; Rate 50 g/ha): 6
- Plant response rating, Chickweed (chickweed [2]; 62 g/ha, 0 to 100 scale): 90
- Plant response rating (0 to 100), Chickweed (chickweed [2]; Rate 4 g/ha): 20
- Plant response rating (0 to 100), Chickweed (chickweed [2]; Rate 16 g/ha): 80
- Plant response rating, Wild buckwheat (wild buckwheat [3]; POSTEMERGENCE, Rate 10 g/ha): 10
- Plant response rating, Wild buckwheat (wild buckwheat [3]; POSTEMERGENCE, Rate 50 g/ha): 10
- Plant response rating, Wild buckwheat (wild buckwheat [3]; PREEMERGENCE, Rate 50 g/ha): 10
- Plant response rating Lambsquarters (lambsquarters; 62 g/ha, 0 to 100 scale): 95
- Plant response rating (0 to 100), Lambsquarters (lambsquarters; Rate 1 g/ha): 40
- Plant response rating (0 to 100), Lambsquarters (lambsquarters; Rate 16 g/ha): 85
- Plant response rating, Cotton (cotton; 62 g/ha, 0 to 100 scale): 100
- Plant response rating (0 to 100), Cotton (cotton; Rate 1 g/ha): 90
- Plant response rating (0 to 100), Cotton (cotton; Rate 4 g/ha): 100
- Plant response rating (0 to 100), Cotton (cotton; Rate 16 g/ha): 100
- Plant response rating, Velvetleaf (velvetleaf; 62 g/ha, 0 to 100 scale): 100
- Plant response rating (0 to 100), Velvetleaf (velvetleaf; Rate 1 g/ha): 85
- Plant response rating (0 to 100), Velvetleaf (velvetleaf; Rate 4 g/ha): 95
- Plant response rating (0 to 100), Velvetleaf (velvetleaf; Rate 16 g/ha): 100
- Plant response rating, Sorghum (sorghum; POSTEMERGENCE, Rate 10 g/ha): 5
- Plant response rating, Sorghum (sorghum; POSTEMERGENCE, Rate 50 g/ha): 4
- Plant response rating, Sorghum (sorghum; PREEMERGENCE, Rate 50 g/ha): 0
- Plant response rating Downy Brome (downy brome; 62 g/ha, 0 to 100 scale): 40
- Plant response rating (0 to 100), Downy Brome (downy brome; Rate 1 g/ha): 10
- Plant response rating (0 to 100), Downy Brome (downy brome; Rate 4 g/ha): 20
- Plant response rating (0 to 100), Downy Brome (downy brome; Rate 16 g/ha): 40
- Plant response rating, Giant foxtail (giant foxtail; POSTEMERGENCE, Rate 10 g/ha): 5
- Plant response rating, Giant foxtail (giant foxtail; POSTEMERGENCE, Rate 50 g/ha): 5
- Plant response rating, Giant foxtail (giant foxtail; PREEMERGENCE, Rate 10 g/ha): 0
- Plant response rating, Giant foxtail (giant foxtail; PREEMERGENCE, Rate 50 g/ha): 3
- Plant response rating (0 to 100), Duck salad (duck salad; POSTEMERGENCE section, flood test, Rate 1 g/ha): 0
- Plant response rating (0 to 100), Duck salad (duck salad; POSTEMERGENCE section, flood test, Rate 4 g/ha): 0
- Plant response rating (0 to 100), Duck salad (duck salad; Rate 16 g/ha, under POSTEMERGENCE head (flood test species)): 40
- Plant response rating Duck salad (duck salad; flood test species listed under POSTEMERGENCE, 62 g/ha, 0 to 100 scale): 40
- Plant response rating, Sugar beet (sugar beet; 62 g/ha, 0 to 100 scale): 100
- Plant response rating (0 to 100), Sugar beet (sugar beet; Rate 1 g/ha): 60
- Plant response rating (0 to 100), Sugar beet (sugar beet; Rate 4 g/ha): 100
- Plant response rating (0 to 100), Sugar beet (sugar beet; Rate 16 g/ha): 100
- Plant response rating, Soybean (soybean; 62 g/ha, 0 to 100 scale): 80
- Plant response rating (0 to 100), Soybean (soybean; Rate 1 g/ha): 30
- Plant response rating (0 to 100), Soybean (soybean; Rate 4 g/ha): 40
- Plant response rating (0 to 100), Soybean (soybean; Rate 16 g/ha): 60
- Plant response rating Ryegrass (ryegrass; 62 g/ha, 0 to 100 scale): 40
- Plant response rating (0 to 100), Ryegrass (ryegrass; Rate 1 g/ha): 10
- Plant response rating (0 to 100), Ryegrass (ryegrass; Rate 4 g/ha): 20
- Plant response rating (0 to 100), Ryegrass (ryegrass; Rate 16 g/ha): 30
- Plant response rating, Corn (corn; POSTEMERGENCE, Rate 10 g/ha): 4
- Plant response rating (0 to 10 scale), Corn (corn; POSTEMERGENCE, Rate 50 g/ha): 3
- Plant response rating, Corn (corn; PREEMERGENCE, Rate 50 g/ha): 0
- Plant response rating, Wild buckwheat (wild buckwheat [4]; 62 g/ha, 0 to 100 scale): 100
- Plant response rating (0 to 100), Wild buckwheat (wild buckwheat [4]; Rate 1 g/ha): 70
- Plant response rating (0 to 100), Wild buckwheat (wild buckwheat [4]; Rate 4 g/ha): 70
- Plant response rating (0 to 100), Wild buckwheat (wild buckwheat [4]; Rate 16 g/ha): 100
- Plant response rating Barley Igri (barley; 62 g/ha, 0 to 100 scale): 50
- Plant response rating (0 to 100), Barley Igri (barley; Rate 1 g/ha): 20
- Plant response rating (0 to 100), Barley Igri (barley; Rate 4 g/ha): 30
- Plant response rating (0 to 100), Barley Igri (barley; Rate 16 g/ha): 40
- Plant response rating, Cheatgrass (cheatgrass; POSTEMERGENCE, Rate 10 g/ha): 5
- Plant response rating (0 to 10 scale), Cheatgrass (cheatgrass; POSTEMERGENCE, Rate 50 g/ha): 6
- Plant response rating, Cheatgrass (cheatgrass; PREEMERGENCE, Rate 10 g/ha): 2
- Plant response rating, Cheatgrass (cheatgrass; PREEMERGENCE, Rate 50 g/ha): 6
